Here are results for one compound from patent publication US6673965B1, “Hydroxamic acid derivative as inhibitor of the formation of soluble human CD23” (SmithKline Beecham P.L.C., priority 1999, dated 2004).

One may read the Cmax as the maximum level reached in the sampled fluid or tissue. Broadly, the MRT is a mean duration of stay, worked out from the concentration-time curve. In general, IC50 refers to the concentration that inhibits the measured activity by half.

SMILES strings stand for the structures. “And” between values parts separate entries of the source, which are not always exact repeats. Equal values may be shown once. Read-outs that look alike come from different tables or passages of the source.

Series [1] concerns TNFα release from human monocytes. In words: Inhibition of release of TNFα from human monocytes stimulated by LPS. In kind it is cell-based. To be noted: at 10 uM; LPS 200 ng/ml, 18-20 hrs. As to the method: Procedure 3: The ability of test compounds to inhibit TNF release was investigated using the following procedure.
Assay for Inhibition of Release of TNFα From Human Monocytes Stimulated by Lipopolysaccharide (LPS) Endotoxin
Human monocytes, cultured in RPMI 1640 medium supplemented with 10% fetal calf serum, are centrifuged at 1000×g for 5 min and then resuspended in medium at 2×10^6 cells/ml. The cell suspension is aliquoted in 24 well plates, 1 ml per well. Compounds to be tested are dissolved in neat dimethyl sulfoxide (DMSO) and added to culture with the final DMSO concentration at 0.1%. Compounds are added to cells in triplicate wells. TNF α release is stimulated by addition of LPS to the cells at a final concentration of 200 ng/ml. Appropriate control cultures are set up in triplicates also. The plates are incubated for 18-20 hrs at 37° C., 5% CO2, then centrifuged at 1000×g for 5 min. A specific ELISA for human TNFα (SmithKline Beecham) is used to measure TNF levels in the cell-free culture supernatants.

The nature of series [2]: i.v. pharmacokinetic parameters and oral bioavailability in male Sprague Dawley rat. In kind it is in vivo. The conditions noted are these: for half-life: rat, 2 mg/kg, two-compartment model. As to the method:
(§1) Procedure 4: The bioavailability of test compounds was investigated using the following bio-equivalence studies.
A Study to Estimate the i.v. Pharmacokinetic Parameters and Oral Bioavailability in Male Sprague Dawley Rat
This study was carried out using a crossover design on four separate study days. Three rats received surgically-implanted femoral vein catheters for infusion of test molecules at least three days prior to the start of the study. All doses in this study were prepared using crystalline test compound.
On study day one, the animals (fed) received test compound as a 30-min intravenous infusion at a target dosage of 4.0 umol/kg (4.0 mL/kg). The dose solution was prepared in 20% aqueous Encapsin® (pH=8.0) and contained 1% DMSO. Encapsin® (Cerestar USA Inc., Hammond, Ind.) is hydroxypropyl-beta-cyclodextrin, a cyclic oligosaccharide used to enhance solubility of compounds that otherwise would require formulation using non-aqueous solvents.
On study day two, the animals (fasted) received test compound as a solution at a target dosage of 8 umol/kg by oral gavage (16 mL/kg). The dose solution was prepared in 5% aqueous succinated porcine gelatin (pH=7.5) and contained 1% DMSO. Blood samples were collected from a lateral tail vein. A 25-uL aliquot of each whole blood sample was added to 25 uL of water and allowed to stand on ice for approximately 5 min to facilitate complete hemolysis; samples then were stored frozen until analvsis. Blood concentrations of test compound were quantified by LC/MS/MS (LLQ=10.0 ng/mL). […] Various compartmental models and weighting paradigms were employed; a two-compartment model with first-order elimination from the central compartment and iterative least squares weighting with a weight of 1/Y^2 provided the best fit to the observed data, according to standard model selection criteria (i.e., Akaike's Information Criterion, Schwartz Criterion, and sum of squared residuals). Pharmacokinetic parameters were calculated using the best-fit compartmental model; all calculations that required the use of AUC values (including bioavailability) were performed using the AUC recovered from noncompartmental analysis.

Series [3] concerns release of soluble CD23 from RPMI 8866 cell plasma membranes. The experiment in a line: RPMI 8866 cell membrane CD23 cleavage activity assay. In kind it is biochemical, human. The conditions noted are these: RPMI 8866 membranes, 37° C., sCD23 by EIA; read-out: IC50 (50% inhibition of production of sCD23). On the procedure: Procedure 1: The ability of test compounds to inhibit the release of soluble CD23 was investigated by use of the following procedure.
RPMI 8866 Cell Membrane CD23 Cleavage Activity Assay
Plasma membranes from RPMI 8866 cells, a human Epstein-Barr virus transformed B-cell line (Sarfati et al., Immunology 60 [1987] 539-547) expressing high levels of CD23 are purified using an aqueous extraction method. Cells resuspended in homogenization buffer (20 mM HEPES pH 7.4, 150 mM NaCl, 1.5 mM MgCl2, 1 mM DTT) are broken by N2 cavitation in a Parr bomb and the plasma membrane fraction mixed with other membranes is recovered by centrifugation at 10,000×g. […]
The fractionated membranes are incubated at 37° C. for times up to 4 hrs to produce fragments of CD23 which are separated from the membrane by filtration in 0.2 micron Durapore filter plates (Millipore) after quenching the assay with 5 uM Preparation 1 from P 30994. sCD23 released from the membrane is determined using the EIA kit from The Binding Site (Birmingham, UK) or a similar one utilizing MHM6 anti-CD23 mAb [Rowe et al., Int. […] The amount of soluble CD23 made by 0.5 ug membrane protein in a total volume of 50 ul phosphate-buffered saline is measured by EIA and compared to the amount made in the presence of various concentrations of inhibitors. […]

Series [4] in a line: i.v. pharmacokinetic parameters and oral bioavailability in male Cynomolgus monkeys. In kind it is in vivo. As to the method:
as §1
A Study to Estimate the i.v. Pharmacokinetic Parameters and Oral Bioavailability in Male Cynomolgus Monkeys
This study was conducted using a crossover design on two separate studv days, seven days apart. Three male Cynomolgus monkeys were used for this study. On both study days, a catheter was placed in a saphenous vein for collection of blood samples. On study day one, a catheter also was temporarily placed in a contralateral saphenous vein for i.v. infusion.
On study day one, each animal (fasted) received test compound (2.0 umol/kg target dose) as a 1-h intravenous infusion (4.0 mL/kg). The dose solution was prepared in 20% aqueous Encapsin® (pH=8.0) and contained 1% DMSO. Encapsin® (Cerestar USA Inc., Hammond, Ind.) is hydroxypropyl-beta-cyclodextrin, a cyclic oligosaccharide (7 glucose units) used to enhance solubility in the preparation of dose solutions that otherwise would require formulation using non-aqueous solvents.
On study day two, each animal (fasted) received test compound (6.0 umol/kg target dose) by oral gavage (8.0 mL/kg). The dose solution was prepared in 5% aqueous succinated porcine gelatin (pH=8.0) and contained 1% DMSO.
Blood samples were obtained from the femoral vein catheter; plasma was isolated by centrifugation. Plasma concentrations of test compound were quantified by LC/MS/MS (LLQ=10 ng/mL). Noncompartmental methods were used for pharmacokinetic analysis of plasma concentration versus time data.

Series [5] is described as follows: i.v. pharmacokinetic parameters and oral bioavailability in male Beagle dogs. The conditions noted are these: Dog. In kind it is in vivo. As to the method: as §1
A Study to Estimate the i.v. Pharmacokinetic Parameters and Oral Bioavailability in Male Beagle Dogs
This study was conducted using a crossover design on two separate study days, seven days apart. Three male Beagle dogs were used in this study. On each study day, a catheter was temporarily placed in a cephalic vein for blood sampling; on study day one only, a catheter was also temporarily placed in a saphenous vein for i.v. infusion.
On study day one, each animal received test compound (2.0 umol/kg target dose) as a 1-h intravenous infusion (4.0 mL/kg). The dose solution was prepared in 20% aqueous Encapsin® (pH=8.0) and contained 1% DMSO. Encapsin® (Cerestar USA Inc., Hammond, Ind.) is hydroxypropyl-beta-cyclodextrin, a cyclic oligosaccharide (7 glucose units) used to enhance solubility in the preparation of dose solutions that otherwise would require formulation using non-aqueous solvents.
On study day two, each animal received test compound (6.0 umol/kg target dose ) by oral gavage (8.0 mL/kg). The dose solution was prepared in 5% aqueous succinated porcine gelatin (pH=7.5) and contained 1% DMSO.
Plasma concentrations of test compound were quantified by LC/MSIMS (LLQ=10 ng/mL). Noncompartmental methods were used for analysis of plasma concentration versus time data.

The mark [6] stands for this setting: male, Sprague Dawley, whole blood, iv, i.v. dose = 2.0 mg/kg.
The mark [7] stands for this setting: Monkey, iv dose = 0.92 mg/kg, individual values, 0.92 mg/kg.
Where [8] appears, read: male, Beagle, plasma, iv dose = 0.96 mg/kg.

In the case of `CNC(=O)[C@@H](NC(=O)[C@H](Cc1ccc2ccccc2c1)[C@H](OC(C)C)C(=O)NO)C(C)(C)C` [N′-[4-(N-hydroxyamino)-3S-isopropoxy-2R-(2-naphthylmethyl)succinyl]-S-tert-leucine methylamide], the “effect on TNF release” value in series [1] is listed as “no effect”. In addition, the “Oral F” value in series [2] (fasted, oral gavage 3.7 mg/kg solution vs i.v. 2.0 mg/kg) is 50.6 ± 10.6%; in series [4] (Monkey, fasted, oral gavage 2.8 mg/kg Solution vs iv 0.92 mg/kg, individual values), 21.1% and 6.0% and 22.5%; in series [5] (oral gavage, po dose = 2.7 mg/kg vs iv 0.96 mg/kg), 29.0 ± 3.7%. The half-life in series [2] (male, Sprague Dawley, whole blood, iv, i.v. dose = 2.0 mg/kg, read-out: T1/2 (α)) turned out to be 10.8 ± 5.3 min; in series [2] (male, Sprague Dawley, whole blood, iv, i.v. dose = 2.0 mg/kg, read-out: T1/2 (β)), 234 ± 139 min. For the same compound, the maximum concentration (Cmax) in series [2] (male, Sprague Dawley, whole blood, iv, 30-min i.v. infusion, i.v. dose = 2.0 mg/kg, blood) came to 1340 ± 296 ng/mL; in series [4] (male, cynomolgus monkey, 1-h i.v. infusion, iv dose = 0.92 mg/kg, plasma), 1010 ± 175 ng/mL; in series [5] (male, Beagle, 1-h i.v. infusion, iv dose = 0.96 mg/kg, plasma) it was 1410 ± 465 ng/mL. Besides, the MRT was 2.13 h in series [2] (setting [6]); 311 min and 59.5 min and 68.1 min in series [4] (setting [7]); 1.07 h in series [5] (setting [8]). Also, the clearance was 26.4 ± 8.5 mL/min/kg in series [2] (setting [6]); 14.7 ± 3.6 mL/min/kg in series [4] (male, cynomolgus monkey, plasma, iv dose = 0.92 mg/kg); 10.6 ± 4.5 mL/min/kg in series [5] (setting [8]). Moreover, the Vd in series [2] (male, Sprague Dawley, whole blood, iv, i.v. dose = 2.0 mg/kg, read-out: Vdss) stood at 3.25 ± 1.7 L/kg; in series [5] (male, Beagle, plasma, iv dose = 0.96 mg/kg, read-out: Vdss), 0.563 ± 0.204 L/kg. Further, the IC50 in series [3] was 60 nM. The T1/2 is 691 min and 85.1 min and 208 min in series [4] (setting [7]); 252 min and 259 min and 49 min in series [5] (iv dose = 0.96 mg/kg, individual values, 0.96 mg/kg). In addition, in series [4] (setting [7]), the Vdss is 4.09 L/kg and 1.11 L/kg and 0.827 L/kg.
